The source of these data is patent US20100062465A1, “Detection of Histone Deacetylase Inhibition” (priority 2006, published 2010).

Several values for one entry are separate records, joined by “and”; a condition that tells them apart may be missing. Equal entries are not always repeated. Structures can show the parent of a compound that is named as a salt.

The test system of series [1] is PC3 human prostate cancer cells. The experiment in a line: WST-1 cell proliferation assay. In kind it is cell-based. The protocol:
PC3 human prostate cancer cells were routinely cultured in DMEM/F12 (Gibco NY USA) supplemented with 10% FCS (Hyclone, Utah USA) and 10,000 U/mL penicillin 10,000 μg/mL streptomycin and […] amphtenicin B (Gibco, NY USA) at 37° C. in 5% CO2.
To assess the effect on cell proliferation of BLT the colorimetric WST-1 cell proliferation assay (Roche USA) was used and manufacturer instructions followed. Briefly, 20×10^3 cells/well were seeded in 96 well plates. Cells were then treated for 24 hours with BLT at 5 μM, 10 μM, 20 μM, 50 μM, 100 μM, 200 μM, 500 μM, 1 mM, 2 mM, 5 mM and 10 mM or with matched DMSO (1.20,000 to 1.10). Subsequently cells were incubated for 4 hours with the WST-1 cell proliferation reagent and absorbance read at 440 nm using a Tecan Freedom Evo liquid handler equipped with the SAFIRE monochromator-based microplate reader (Tecan U.S., NC, USA).
Note that controls were treated with DMSO in order to clearly identify effects which are due to the compound being investigated rather than its vehicle (DMSO). FSAHA dose was based on previous findings (Butler L M, Agus D B, Scher H I, et al. Suberoylanilide hydroxamic acid, an inhibitor of histone deacetylase, suppresses the growth of prostate cancer cells in vitro and in vivo. Cancer Res 2000 September 15;60(18):5165-70).

Series [2] relates to PC3 cells. The experiment in a line: GC-MS analysis of TFA in extracellular medium. In kind it is cell-based, human. The source says:
To assess build-up of TFA in medium, samples of extracellular medium were collected and analyzed using gas chromatography-mass spectroscopy (GC-MS). In order to be able to use standard capillary GC-MS, TFA had to be derivatized. This was done using a modification of the procedure of Scott et al. (Scott B F, Mactavish D, Spencer C, Strachan W M J, Muir D C G. Haloacetic acids in Canadian lake waters and precipitation. Environmental Science & Technology 2000;34:4266-72) as follows. One ml of sample, or TFA standard in medium, was treated with 20 mg NaCl, 60 μL HCl, and 30 μl each of 100 mM 1,3-dicyclohexylcarbohiimide (Sigma-Aldrich Chemical Co., MO. USA) and 2,4-difluoroaniline (Sigma-Aldrich Chemical Co., MO. USA) and adjusted to a final volume of 1.320 ml in ethyl acetate. Mixture was vortexed for 60 minutes at room temperature; an additional 50 mg of NaCl added and sample briefly vortexed. Following phase separation the organic layer was removed and stored. The aqueous phase was further extracted twice with 200 μl of ethyl acetate. All three ethyl acetate extracts were combined and treated with 50 μl 3M HCl and 50 μL saturated anhydrous sodium sulfate (Na2SO4), vortexed and another 20 mg of Na2SO4 added and mixed. The organic phase was then evaporated to dryness under a dry nitrogen gas stream. The residue was dissolved in 250 μL of toluene and transferred into sample vials for analysis. Three microliters of sample extract were analyzed using an Agilent 6890N GC coupled to 5973N MSD in splitless injection mode. TFA was resolved using a Supleco Omegawax 250 capillary column (30 m×0.25 mm). Column temperature was 100° C. for one minute, ramping to 230° C. at 25° C. per minute and then held at 230° C. for two minutes. Detection was performed in EI positive mode monitoring the m/z 225 ion.

Series [3] deals with PC3 cells. Kind of series: 31P MRS of PC3 cell extracts (phosphocholine). In kind it is cell-based, human. As to conditions: 24 h. The method, then:
For MRS studies, PC3 cells were treated for 24 h with FSAHA at 2, 5, 7, 8, 9 and 10 μM in the presence of 1 mM BLT or with 1 mM BLT alone. […] The number of cells extracted was determined by counting a separate flask of cells. ^19F MR spectra of the water-soluble metabolites were recorded as above. Metabolite concentrations were determined by integration and comparison with the area of the external C6F6 reference, normalizing to cell number and correcting for saturation effects. Correction for saturation effects was achieved by also acquiring a quantitative inverse gated fully relaxed spectrum on two different samples and calculating the correction factors which need to be applied to the partially relaxed spectra. It was determined that the T1 relaxation of BLT is 1 s and that of C6F6 is 3 s. The fully relaxed spectrum was therefore acquired using a 90 deg. flip angle and a 15 s relaxation delay (5 times the longest T1). ^31P MR spectra were recorded on an Avance DRX500 Bruker spectrometer (Bruker Biospin Germany) using a 30 deg. flip angle and 3 s relaxation delay. […]

The subject of series [4] is PC3 cells. The experiment in a line: 19F MRS of PC3 cell extracts (intracellular BLT, TFA, FSAHA). As to conditions: for Intracellular BLT level: 24 h. In kind it is cell-based, human. The method, then:
For MRS studies, PC3 cells were treated for 24 h with FSAHA at 2, 5, 7, 8, 9 and 10 μM in the presence of 1 mM BLT or with 1 mM BLT alone. Approximately 1×10^7-1.5×10^7 cells were then extracted using the dual phase extraction method as previously described (Chung Y L, Troy H, Banerji U, et al. Magnetic resonance spectroscopic pharmacodynamic markers of the heat shock protein 90 inhibitor 17-allylamino, 17-demethoxygeldanamycin (17AAG) in human colon cancer models. J Natl Cancer Inst 2003 November 5;95(21):1624-33, Tyagi R K, Azrad A, Degani H, Salomon Y. Simultaneous extraction of cellular lipids and water-soluble metabolites: evaluation by NMR spectroscopy. Magn Reson Med 1996 February;35(2):194-200.47). Briefly, cells were extensively rinsed with ice-cold saline to remove any residual extracellular BLT and medium. Cells were then fixed in 10 ml of ice-cold methanol, scraped off the surface of the culture flask, collected into glass tubes and vortexed. 10 ml of ice-cold chloroform was then added followed by 10 ml of ice-cold de-ionized water. Following phase separation and solvent removal the water-soluble fraction was reconstituted in 250 μl of deuterium oxide (D2O) and 250 μl of DMSO for ^19F MR measurements. To perform the ^31P MR measurement 100 μl of EDTA and 50 μl methylene diphosphonic acid (MDPA) in D2O were added to a final concentration of 10 mM and 0.35 mM respectively. The number of cells extracted was determined by counting a separate flask of cells. ^19F MR spectra of the water-soluble metabolites were recorded as above. Metabolite concentrations were determined by integration and comparison with the area of the external C6F6 reference, normalizing to cell number and correcting for saturation effects. Correction for saturation effects was achieved by also acquiring a quantitative inverse gated fully relaxed spectrum on two different samples and calculating the correction factors which need to be applied to the partially relaxed spectra. It was determined that the T1 relaxation of BLT is 1 s and that of C6F6 is 3 s. The fully relaxed spectrum was therefore acquired using a 90 deg. flip angle and a 15 s relaxation delay (5 times the longest T1). ^31P MR spectra were recorded on an Avance DRX500 Bruker spectrometer (Bruker Biospin Germany) using a 30 deg. flip angle and 3 s relaxation delay. Metabolite concentrations were determined by integration and comparison with the area of the internal MDPA reference, normalizing to cell number and correcting for saturation effects (correction factors were determined as above by acquiring a fully relaxed quantitative spectrum using a 90 deg. flip angle and a 30 s relaxation delay).
To monitor the fluorinated metabolites, the lipid phase was reconstituted in 500 μl CDCl3. To monitor the fluorinated metabolites in cellular protein, the protein pellet obtained during cell extraction was dissolved in 1 ml of 0.5 M NaOH and heated to 60° C. for 1 h. Samples were then analyzed by ^19F MRS as above.

The mark [5] stands for this setting: PC3 control cells, 1 mM BLT alone.
[6] abbreviates: PC3 cells, 10 μM FSAHA in the presence of 1 mM BLT.

Turning to `CC(C)(C)OC(=O)N[C@@H](CCCCNC(=O)C(F)(F)F)C(=O)O` [BLT, Boc-Lys-TFA-OH], the “Effect on cell proliferation compared to matched DMSO controls” value in series [1] (5 μM to 10 mM, 24 hours) was “did not significantly affect cell proliferation”. In series [1] (Homo sapiens, PC-3, 24-hour treatment with 1 mM BLT, read-out: Cell numbers, % of controls), the activity at 1000 µM turned out to be 95 ± 4%. In addition, the “Level of TFA in cellular growth medium” value in the series on PC3 cells [2] (setting [5]) is 5 ± 0.4 µg/mL. The “Phosphocholine (PC) level” value in the series with PC3 cells [3] (setting [5]) is 7±1 fmol/cell and 7 fmol/cell. For the same molecule, in the series on PC3 cells [4] (PC3 cells, 1 mM BLT alone (control cells)), the “Intracellular BLT level” value was 14±4 fmol/cell and 14 fmol/cell. Also, the “Intracellular TFA concentration” value in the series on PC3 cells [4] (setting [5]) was determined as 1.1±0.6 fmol/cell.

For `O=C(CCCCCCC(=O)Nc1ccc(F)cc1)NO` [FSAHA, 4-Fluorosuberanilohydroxamic acid], the “Cell proliferation relative to control” value in series [1] (2 μM) amounted to 87±5%; in series [1] (2 μM in the presence of 1 mM BLT), 86±1%; in series [1] (5 μM), 79±3%; in series [1] (5 μM in the presence of 1 mM BLT), 77±7%; in series [1] (10 μM), 66±6%; in series [1] (10 μM in the presence of 1 mM BLT) it was 63±2%. For the same molecule, the “Average lowering of TFA in medium compared to controls” value in the series with PC3 cells [2] (10 μM FSAHA-treated PC3 cells) came to 1.6 µg/mL. Moreover, in the series with PC3 cells [2] (setting [6]), the “Level of TFA in cellular growth medium” value amounted to 3.4 ± 0.7 µg/mL. The “Lowering of TFA in medium calculated from the BLT increase” value in the series on PC3 cells [2] (assuming all TFA from BLT cleavage is removed into the medium, 10 μM FSAHA) is 1.3 µg/mL. Further, the “Phosphocholine (PC) level” value in the series with PC3 cells [3] (setting [6]) was 16±2 fmol/cell and 16 fmol/cell and 15 fmol/cell. The “Average increase of intracellular BLT” value in the series on PC3 cells [4] (10 μM FSAHA-treated PC3 cells) was found to be 18 fmol/cell. Also, the “Intracellular TFA concentration” value with PC3 cells [4] (setting [6]) was determined as 1±1 fmol/cell. Moreover, the “Intracellular BLT level” value with PC3 cells [4] (setting [6]) was 32±4 fmol/cell and 32 fmol/cell.
